The target of assay [1] is T1, TEAD1 (Homo sapiens, UniProt P28347). The experiment in a line: Binary complex formation of TEAD1 to TEAD binders, SPR. Conditions: data not shown. The format is binding.
Assay [2] deals with T1, TEAD1. The experiment in a line: Binary complex formation of TEAD1 to TEAD binders, biochemical assays. Conditions: data not shown.
Assay [3] has as its target T2, YAP(2-268):TEAD1(209-436) interaction (Homo sapiens, UniProt P28347).
T2 construct: made in house; host or cells: YAP: E. coli BL21 Star (DE3) pRARE2 lysate
The experiment in a line: SPR, inhibition of YAP:TEAD1 interaction: TEAD1 pre-incubated with binder, injected over cellular biotinylated YAP(2-268). The format is binding. Conditions: for Effect on YAP(2-268):TEAD1 interaction compared with TEAD1 apo-form: TEAD1 incubated with saturating concentration (30 µM) of binder. The text has this:
The cellular biotinylated YAP(2-268) protein, as well as the biotinylated YAP(61-100) peptide, were immobilized using a similar approach as that described previously. However, neutravidin protein (ThermoFisher Scientific) was used as the selected pre-coated surface on a CM5 Series S sensor chip instead of streptavidin. […] The remaining activated groups were then blocked with ethanolamine-HCl. […] The interaction analysis cycles consisted of 120 s of sample injection followed by 280 s of running buffer flow. The experiment was performed at 15 °C. To ensure that the surface integrity of the cellular biotinylated YAP remained intact and that the interaction kinetic profile with TEAD1 was restored, an additional injection of TEAD1 apo-form was performed at the end of each experiment. All sensorgrams were processed by first subtracting the binding response recorded from the control surface (reference spot, where only the avidin protein is immobilized), followed by subtraction of the buffer blank injection from the reaction spot. All datasets were fitted to a simple 1:1 Langmuir interaction model to determine the kinetic rate constants, and the interaction affinity was additionally calculated at a steady state when applicable. In cases where small molecules were present during the assay, a DMSO solvent correction (1–3%) was applied to account for variations in bulk signal and to achieve high-quality data. The experiments with immobilized purified proteins were performed on a Biacore 4000 (Cytiva, Uppsala, Sweden), and the interaction was evaluated using the provided Biacore 4000 evaluation software, while the experiments with soluble cell lysates on a Biacore T200 (Cytiva, Uppsala, Sweden) used the provided Biacore T200 evaluation software. All SPR experiments were performed in duplicate.

The target in assay [4] is T3, DKC1(1-514) (Homo sapiens, UniProt O60832).
T3 construct: The cellular biotinylated His6-DKC1(1-514)-AviTag was immobilized using the approach described in Section 2.5.2; made in house; host or cells: E. coli BL21(DE3), co-expressed with BirA; soluble lysate used without purification
T3 sequence (O60832 1-514): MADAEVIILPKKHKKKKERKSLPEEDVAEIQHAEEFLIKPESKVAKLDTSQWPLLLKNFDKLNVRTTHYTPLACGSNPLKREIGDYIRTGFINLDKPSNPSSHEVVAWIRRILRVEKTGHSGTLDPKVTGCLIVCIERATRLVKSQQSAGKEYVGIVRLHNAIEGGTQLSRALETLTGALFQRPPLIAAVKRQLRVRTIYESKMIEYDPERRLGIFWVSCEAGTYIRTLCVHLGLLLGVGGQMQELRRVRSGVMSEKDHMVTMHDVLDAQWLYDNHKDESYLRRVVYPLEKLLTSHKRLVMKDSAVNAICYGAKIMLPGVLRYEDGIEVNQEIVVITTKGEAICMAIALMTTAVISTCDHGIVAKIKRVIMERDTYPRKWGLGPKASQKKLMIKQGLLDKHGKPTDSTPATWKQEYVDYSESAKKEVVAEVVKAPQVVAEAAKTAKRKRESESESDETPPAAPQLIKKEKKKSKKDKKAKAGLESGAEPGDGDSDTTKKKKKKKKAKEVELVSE
The experiment in a line: SPR Extract2Chip, cellular biotinylated DKC1(1-514), RuvBL1/RuvBL2 injected. The format is binding. As for the experimental part: The cellular biotinylation of the DKC1(1-514) protein followed the same approach as that described for CypD. DKC1(1-514) was expressed in BL21(DE3) in LB media and induced with 500 µM IPTG overnight at 18 °C. The PD-10 Desalting column was equilibrated with buffer U (50 mM HEPES pH 6.5, 750 mM KCl, 0.5 mM EDTA, and 0.5 mM TCEP).
The cellular biotinylated His6-DKC1(1-514)-AviTag was immobilized using the approach described in Section 2.5.2. The soluble cell lysate was diluted to 15 µg/mL and coupled with 150 and 300 s injection times to reach 130 to 175 RU. […]
All sensorgrams were processed by first subtracting the binding response recorded from the control surface (reference spot, where only the avidin protein is immobilized), followed by subtraction of the buffer blank injection from the reaction spot. All datasets were fitted to a simple 1:1 Langmuir interaction model to determine the kinetic rate constants, and the interaction affinity was additionally calculated at a steady state when applicable. […] The experiments with immobilized purified proteins were performed on a Biacore 4000 (Cytiva, Uppsala, Sweden), and the interaction was evaluated using the provided Biacore 4000 evaluation software, while the experiments with soluble cell lysates on a Biacore T200 (Cytiva, Uppsala, Sweden) used the provided Biacore T200 evaluation software. […]

Assay [5] deals with T4, His6-RuvBL1(1-456)/RuvBL2(1-463) (UniProt Q9Y265 1-456; Q9Y230 1-463).
T4 construct: RuvBL1, residues 1-456; RuvBL2, residues 1-463; also called RuvBL1/RuvBL2; AAA+ ATPases RuvBL1/RuvBL2; not shown: His6, N-terminal, kept
Put plainly: SPR; cellular biotinylated His6-DKC1(1-514)-AviTag captured from soluble cell lysate (130 to 175 RU) on neutravidin-coated CM5 chip; RuvBL1/RuvBL2 complexes injected, 10 concentrations, 2-fold series from 0.05 µM; 20 mM NaKPi pH 7.5, 150 mM NaCl, 5 mM MgCl2, 1 mM DTT, 0.05% Tween 20; 25 °C; 1:1 Langmuir fit. Conditions: one partner purified. (SPR reads the build-up and loss of mass on a sensor chip optically.)

The mark [6] stands for this setting: TEAD1 incubated with 30 µM binder 18 h at 30 °C, 15 °C.

T4 sequence (Q9Y265 whole entry, chain 1 of 2, the tested form may be a part): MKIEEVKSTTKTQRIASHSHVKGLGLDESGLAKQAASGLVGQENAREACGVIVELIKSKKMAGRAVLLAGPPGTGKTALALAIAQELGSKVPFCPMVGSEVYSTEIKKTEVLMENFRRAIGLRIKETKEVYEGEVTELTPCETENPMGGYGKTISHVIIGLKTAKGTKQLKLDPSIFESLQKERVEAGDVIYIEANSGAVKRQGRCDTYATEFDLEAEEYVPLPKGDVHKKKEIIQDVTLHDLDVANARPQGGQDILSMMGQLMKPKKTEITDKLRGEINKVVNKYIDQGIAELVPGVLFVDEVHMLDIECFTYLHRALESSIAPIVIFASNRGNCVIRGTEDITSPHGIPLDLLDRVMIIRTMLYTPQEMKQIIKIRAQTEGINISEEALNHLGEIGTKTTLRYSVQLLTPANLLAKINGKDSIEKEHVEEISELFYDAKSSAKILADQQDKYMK
T4 sequence (Q9Y230 whole entry, chain 2 of 2, the tested form may be a part): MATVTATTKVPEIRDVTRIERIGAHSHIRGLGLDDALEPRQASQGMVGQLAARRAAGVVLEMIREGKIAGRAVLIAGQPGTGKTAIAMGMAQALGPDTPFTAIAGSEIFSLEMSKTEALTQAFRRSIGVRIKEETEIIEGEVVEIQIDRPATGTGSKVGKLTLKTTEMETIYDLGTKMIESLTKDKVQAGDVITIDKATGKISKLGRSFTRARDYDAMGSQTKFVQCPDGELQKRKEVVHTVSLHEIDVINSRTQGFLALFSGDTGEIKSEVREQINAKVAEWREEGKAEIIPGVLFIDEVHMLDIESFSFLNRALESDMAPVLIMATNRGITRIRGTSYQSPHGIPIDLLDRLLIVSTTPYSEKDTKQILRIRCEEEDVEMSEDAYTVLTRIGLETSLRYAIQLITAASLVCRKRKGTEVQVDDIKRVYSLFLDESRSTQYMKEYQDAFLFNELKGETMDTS
T2 sequence (P28347 209-426): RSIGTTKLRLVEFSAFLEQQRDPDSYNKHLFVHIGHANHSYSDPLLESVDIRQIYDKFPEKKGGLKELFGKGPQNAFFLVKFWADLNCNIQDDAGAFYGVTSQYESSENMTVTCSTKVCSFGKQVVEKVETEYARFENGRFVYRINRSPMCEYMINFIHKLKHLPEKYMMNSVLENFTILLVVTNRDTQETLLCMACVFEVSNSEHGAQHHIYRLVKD
T1 sequence (P28347 whole entry): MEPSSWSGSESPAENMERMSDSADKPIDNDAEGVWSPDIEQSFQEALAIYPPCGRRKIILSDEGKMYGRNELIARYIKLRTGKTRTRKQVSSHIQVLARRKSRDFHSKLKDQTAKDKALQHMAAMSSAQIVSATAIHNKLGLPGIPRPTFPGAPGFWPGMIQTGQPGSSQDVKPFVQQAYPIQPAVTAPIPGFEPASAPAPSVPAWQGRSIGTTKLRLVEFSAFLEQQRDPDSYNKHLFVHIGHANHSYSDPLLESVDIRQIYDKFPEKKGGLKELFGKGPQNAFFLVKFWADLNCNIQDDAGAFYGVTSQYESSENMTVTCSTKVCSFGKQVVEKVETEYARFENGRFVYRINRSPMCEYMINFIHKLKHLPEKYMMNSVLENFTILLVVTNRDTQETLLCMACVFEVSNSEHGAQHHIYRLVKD

The Kd is the concentration at which binding is half-saturated. As a reminder, the IC50 is the concentration needed to halve the response being measured. High values mean weaker potency, low ones greater potency. `O=C(CCl)c1ccccc1Nc1cccc(C(F)(F)F)c1` [TED-347] came in with a Kd in assay [1] of 1400 nM. Further, the IC50 in assay [2] is 340 nM. Moreover, in assay [3] (setting [6]), the “ka ± SD of YAP(2-268):TEAD1 interaction in presence of binder” value was 1.2e+06 ± 120000 M⁻¹ s⁻¹ and the “kd ± SD of YAP(2-268):TEAD1 interaction in presence of binder” value worked out at 0.34 ± 0.074 s⁻¹. Also, the “Effect on YAP(2-268):TEAD1 interaction compared with TEAD1 apo-form” value in assay [3] was “decrease in affinity”.
Consider “RuvBL1_D302N, RuvBL2_D299N: ATP hydrolysis RuvBL1/RuvBL2 mutant”, for which the “Interaction with immobilized DKC1(1-514)” value in assay [4] (compared with RuvBL1(1-456)/RuvBL2(1-463), partly data not shown) is “Identical results”.
Consider `Nc1ncnc2c1ncn2[C@@H]1O[C@H](CO[P@](=O)(O)O[P@](=O)(O)O[P@@](=O)(O)S)[C@@H](O)[C@H]1O` [ATPγS], for which the “Effect on DKC1:RuvBL1/RuvBL2 interaction” value in assay [4] (saturating concentrations, data not shown) was “Identical results”.
As for `CCCC[C@@H]1NC(=O)[C@H](CCCCN)NC(=O)[C@H](CCCNC(=N)N)NC(=O)[C@H](CC(C)C)NC(=O)[C@@H](NC(=O)[C@H](Cc2cccc(Cl)c2)NC(=O)[C@@H]2CCCN2C(=O)[C@@H](NC(C)=O)C(C)C)CCSSC[C@@H](C(=O)N[C@@H](CCCCN)C(=O)N2CCC[C@H]2C(=O)N2CCC[C@H]2C(=O)N[C@@H](CCC(=O)O)C(N)=O)NC(=O)[C@H](Cc2ccccc2)NC(=O)[C@H](CO)NC(=O)[C@H](C)NC(=O)[C@@H]2CCCN2C1=O` [Peptide 17], in assay [3], the “Effect on YAP(2-268):TEAD1 interaction compared with TEAD1 apo-form” value is reported as “significantly suppressed the interaction”.

B1: Cellular biotinylated H/ACA ribonucleoprotein complex subunit Dyskerin pseudouridine synthase 1, His6-DKC1(1-514)-AviTag (natural protein, UniProt O60832 1-514, looked up)
chain: MADAEVIILPKKHKKKKERKSLPEEDVAEIQHAEEFLIKPESKVAKLDTSQWPLLLKNFDKLNVRTTHYTPLACGSNPLKREIGDYIRTGFINLDKPSNPSSHEVVAWIRRILRVEKTGHSGTLDPKVTGCLIVCIERATRLVKSQQSAGKEYVGIVRLHNAIEGGTQLSRALETLTGALFQRPPLIAAVKRQLRVRTIYESKMIEYDPERRLGIFWVSCEAGTYIRTLCVHLGLLLGVGGQMQELRRVRSGVMSEKDHMVTMHDVLDAQWLYDNHKDESYLRRVVYPLEKLLTSHKRLVMKDSAVNAICYGAKIMLPGVLRYEDGIEVNQEIVVITTKGEAICMAIALMTTAVISTCDHGIVAKIKRVIMERDTYPRKWGLGPKASQKKLMIKQGLLDKHGKPTDSTPATWKQEYVDYSESAKKEVVAEVVKAPQVVAEAAKTAKRKRESESESDETPPAAPQLIKKEKKKSKKDKKAKAGLESGAEPGDGDSDTTKKKKKKKKAKEVELVSE
modifications: biotin on the AviTag (BirA, in the cells)
notes: Dyskerin pseudouridine synthase 1 (DKC1), residues 1-514; Captured from the lysate on a neutravidin-coated CM5 chip by the biotinylated AviTag; also called DCK1(1-514); DCK1(1-541); source: E. coli BL21(DE3), co-expressed with BirA-FLAG and D-biotin, in cleared lysate (desalted, not purified); not shown: His6, N-terminal, kept; AviTag, C-terminal, kept
In general, koff refers to a measure of how fast the partners let go of each other. Read a high koff as fast dissociation. In general, kon refers to the rate constant with which the complex forms. A high value points to fast association. In assay [5], B1 showed a Kd of 23 nM, a koff of 0.015 s⁻¹ and a kon of 650000 M⁻¹ s⁻¹.

The values are drawn from publication PMC10605449 (Biosensors, 2023).
